# Results: PubChem BioAssay AID602267 (Broad Institute, 2012)
# Activity calls are given as the source filed them.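 The calls were made as follows: active = signal falls with dose and the fitted half-maximal concentration is at or below twice the top valid tested dose; inconclusive = flat curve with 30 to 70% inhibition, or poor fit; inactive = wrong direction, flat within 30%, or potency beyond limit.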
# Biological target: Golgi-associated PDZ and coiled-coil motif-containing protein (Homo sapiens) (UniProt Q9HD26)
# Test: CAL PDZ domain peptide-binding inhibitors, dose response, biochemical, fluorescence polarization, untagged CAL PDZ, cherry-pick (AID 602267)
# Conditions: purified CAL PDZ, TMR-peptide fluorescence polarization, 1 h
Structure (SMILES),"activity change, negative = inhibition (at 50 µM (top of the series))",other results
Cc1cccc(-n2nc(C)c3c2NC2=C(C(=O)CCC2)C3c2ccccn2)c1 (stereo not given),inactive,–
CC(C)CNC(=O)CC1Nc2ccccc2NC1=O (stereo not given),inactive,–
O=S(=O)(/N=C(/Nc1ccc(Cl)c(S(=O)(=O)N2CCOCC2)c1)c1ccc(F)cc1)c1ccccc1,inactive,–
COc1cccc(-c2cccc(NC(=O)C3CCN(Cc4ccc(CO)o4)CC3)c2)c1,inactive,–
O=C(COC(=O)CNC(=O)c1cccc([N+](=O)[O-])c1)NCc1ccco1,inactive,–
COc1cc(C(=O)NC(C)CCc2ccccc2)cc(OC)c1OC (stereo not given),inactive,–
O=C(CN1CC[n+]2c(-c3cccs3)csc21)c1ccc(-c2ccccc2)cc1,inactive,–
CC(C)Oc1ccc(C(=O)Nc2ccc(S(=O)(=O)N3CCN(C)CC3)cc2)cc1,inactive,–
O=C1CN=C(c2ccccc2)c2oc3ccc(Br)cc3c2N1,inactive,–
Cn1nc(C(=O)N2CCCc3ccccc32)c2ccccc2c1=O,inactive,–
COc1ccc(C(=O)Nc2nccs2)cc1,inactive,–
CCOC(=O)Cn1ncn(-c2ccc(OC(F)(F)F)cc2)c1=O,inactive,–
Cc1nn(C)cc1CN(C)C(=O)c1nn2c(c1Br)NC(c1cccs1)CC2C(F)(F)F (stereo not given),inactive,–
Cc1ccnc(SCC(=O)N2CCC(C(N)=O)CC2)n1,inactive,–
C=CCOc1c(Cl)cc(CNn2cn[nH]c2=S)cc1OC,–,"activity change, negative = inhibition (at 16 µM (top of the series)): inactive"
O=C(NCC(=O)N1CCC(N2CCCCC2)CC1)C1CCCCC1,inactive,–
O=C1c2ccccc2C(O)N1c1ccccc1 (stereo not given),inactive,–
O=C(O)CSc1cc(NS(=O)(=O)c2ccc(Cl)cc2)c2ccccc2c1O,–,AC50: 32.9 µM
COc1ccc(N2CCN(C3CCCN(Cc4ccc(F)cc4)C3)CC2)cc1 (stereo not given),inactive,–
Cc1[nH]c2ccccc2c1C(=O)CSc1nc2ncc(Cl)cc2[nH]1,inactive,–
Cc1ccc2nc(NCc3ccc(F)cc3)c3nncn3c2c1,inactive,–
COC(=O)c1ccccc1-c1c2ccc(=N)cc-2oc2cc(N)ccc12,–,AC50: 2.03 µM

Structure (SMILES),"activity change, negative = inhibition (at 50 µM (top of the series))",other results
O=C1CN(C(=O)CC2C(=O)NCCN2Cc2ccccc2C(F)(F)F)CCN1 (stereo not given),inactive,–
Cc1ccc(Cl)c2c(N=Nc3ccccc3)c(O)[nH]c12,inactive,–
COc1ccc(C2/C(=C(/O)c3ccc(C)cc3)C(=O)C(=O)N2C)c(OC)c1 (stereo not given),inactive,–
CCNS(=O)(=O)c1ccc(CCC(=O)N2CCCC2)cc1,inactive,–
CCCCNC(=O)c1ccc(-n2c(=S)[nH]c3ccccc3c2=O)cc1,inactive,–
O=C(c1cccs1)N1CCN(C(=O)N2CCOCC2)CC1,inactive,–
Cc1ccnc2nc(C(=O)OCCOc3ccc(F)cc3)nn12,inactive,–
Cc1ccc(-c2nnn(CC(=O)N(CCN3CCOCC3)C(C(=O)NC(C)(C)C)c3ccc(C)o3)n2)cc1 (stereo not given),inactive,–
CCOCCCNC(=O)c1ccc2c(=O)n(Cc3ccc4c(c3)OCO4)c(=S)[nH]c2c1,inactive,–
CO[C@H]1O[C@H](C)[C@@H](O)C[C@H]1NC(=O)OCc1ccccc1,inactive,–
O=C(NC(=S)NCCCN1CCOCC1)c1ccc(Br)cc1,inactive,–
CC(c1ccccc1)N1CCN(C(=O)CCl)CC1 (stereo not given),inactive,–
c1ccc(C(Nc2cccnc2)c2ccccc2)cc1,inactive,–
COc1cc(S(=O)(=O)n2nc(C)cc2C)ccc1Cl,inactive,–
CCOC(=O)C1=C(C)OC(N)=C(C#N)C1c1cccc(C)c1 (stereo not given),inactive,–
COc1ccccc1NC(=O)N(c1c(N)n(Cc2ccccc2)c(=O)[nH]c1=O)C1CCCC1,inactive,–
CCOc1ccccc1N(CC(=O)Nc1cccc2ccccc12)S(C)(=O)=O,inactive,–
O=C(Nc1ccc(Cl)cc1)c1ccc(CN2CCc3ccccc3C2)cc1,inactive,–
COc1cc(NS(=O)(=O)c2ccc(NC(=S)Nc3ccccc3)cc2)nc(OC)n1,inactive,–
C(=C/c1nccc2c1[nH]c1ccccc12)/c1ccc2c(c1)OCO2,inactive,–
COCC(=O)NNC(=O)c1ccc(OC)cc1,inactive,–
C=CCN1C(=O)/C(=C/c2ccsc2)SC1=S,inactive,–

Structure (SMILES),"activity change, negative = inhibition (at 50 µM (top of the series))",other results
O=C(COC(=O)c1ccc(Cl)nc1)Nc1ccc(N2CCCCC2)cc1,inactive,–
O=C(NCc1cccnc1)/C(=C/c1ccc(-c2cccc(C(F)(F)F)c2)o1)NC(=O)c1ccccc1,inactive,–
CCC(=O)c1ccc(N2CCC(C)CC2)c(F)c1,inactive,–
NS(=O)(=O)c1ccc(N2N=C(c3ccccc3)CC2c2ccccc2)cc1 (stereo not given),inactive,–
CCn1ncc(Br)c1C(=O)Nc1cccc(F)c1,inactive,–
O=C(NCc1ccc(Cl)cc1)C(=O)NCC1OCCN1C(=O)c1ccc(Cl)cc1 (stereo not given),inactive,–
NC(=O)c1cc2ccccc2o/c1=N\NC(=O)c1ccncc1,inactive,–
O=C(c1ccccc1)C(c1ccccc1)c1ccccc1,–,"activity change, negative = inhibition (at 16 µM (top of the series)): inactive"
S=C(NCCc1ccccc1)N1CCn2cccc2C1c1cccnc1 (stereo not given),inactive,–
O=[N+]([O-])c1ccc(N/N=C/c2cccnc2)cc1,inactive,–
Cc1ccc2cc(C#N)c(N3CCCN(S(=O)(=O)c4ccccc4)CC3)nc2c1,inactive,–
COc1ccc(S(=O)(=O)N2CC(=O)Nc3ccccc32)cc1F,inactive,–
Cc1cccc(N=Nc2c(O)[nH]c3ccc(F)cc23)c1,inactive,–
c1ccc2[nH]c(CCNC3CCCCC3)nc2c1,inactive,–
CC1=C(C#N)C(Nc2ccc(Cl)cn2)(C(F)(F)F)C(=O)N1 (stereo not given),inactive,–
Nc1ncnc2c1C(c1ccccc1)c1c(ccc3ccccc13)O2 (stereo not given),inactive,–
C/C(=C/c1ccccc1)C(=O)N1CCN(c2ccccc2)CC1,inactive,–
CCN(CC)S(=O)(=O)c1cc(C(=O)Oc2ccccc2OC)ccc1OC,inactive,–
COc1ccc(Cl)cc1C(=O)Nc1ccc2c(c1)OCCO2,inactive,–
CC(CN1CCCC1)OC(=O)C(c1ccccc1)c1ccccc1 (stereo not given),inactive,–
CN(C)c1ccc(C(=O)OCC(=O)NC2CCCCCC2)cc1,inactive,–
